The results in this text go back to PubChem BioAssay (NCI).

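Method: 48-hour compound exposure of cells in 96-well plates, five concentrations, linear interpolation of endpoints. At the TGI there is no net growth.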

Some test systems named below: HOP-92 NSCLC; SN12C renal; IGROV1 ovarian; HS 578T breast; SNB-75 CNS; MCF7 breast; MALME-3M melanoma; 786-0 renal; OVCAR-8 ovarian; UACC-257 melanoma; MDA-MB-231 breast; SNB-19 CNS; A498 renal; OVCAR-5 ovarian; SK-MEL-28 melanoma; HCT-15 colon; A549 NSCLC; SF-268 CNS; COLO 205 colon; RXF 393 renal.
Experiment in all cases: inhibition of tumour cell growth, NCI panel, 48 h

Turning to `CCCC(=O)Oc1ccc2c(C)cc(=O)oc2c1OC(=O)CCC`, the TGI with HOP-92 NSCLC was 99.6 µM; in the assay with SN12C renal, above 100 µM; in the assay with IGROV1 ovarian, above 100 µM; in the assay on HS 578T breast it was above 100 µM; with SNB-75 CNS it was above 100 µM; with MCF7 breast, above 100 µM. Besides, the TGI in the assay with MALME-3M melanoma, in the assay on 786-0 renal, with OVCAR-8 ovarian, in the assay on UACC-257 melanoma, in the assay with MDA-MB-231 breast and in the assay on SNB-19 CNS was above 100 µM in each case. For the same compound, the TGI with A498 renal, in the assay on OVCAR-5 ovarian, with SK-MEL-28 melanoma, in the assay with HCT-15 colon, in the assay with A549 NSCLC and with SF-268 CNS was above 100 µM in each case. In the assay with COLO 205 colon, this compound came in with a TGI above 100 µM.
Take `O=[N+]([O-])C(=C(Nc1ccccc1)Nc1ccccc1)/C(Cl)=C(\Cl)Br`: the TGI with HOP-92 NSCLC was 33.6 µM; in the assay with SN12C renal, 26.6 µM; in the assay on HS 578T breast, above 100 µM; in the assay on SNB-75 CNS, 28.4 µM; in the assay on MCF7 breast, 33.9 µM; in the assay with MALME-3M melanoma it was 37.1 µM. Moreover, the TGI is 31.2 µM in the assay on 786-0 renal; 37 µM in the assay with OVCAR-8 ovarian; 27.8 µM with UACC-257 melanoma; 29 µM in the assay on MDA-MB-231 breast; 35.6 µM with A498 renal; 22.5 µM with OVCAR-5 ovarian. Besides, the TGI was 29.9 µM with SK-MEL-28 melanoma, 24.2 µM with HCT-15 colon, 51.1 µM with A549 NSCLC and 43.1 µM in the assay with SF-268 CNS.
Turning to `CCSC1=N/C(=C/c2ccccc2O)C(=O)N1`, the TGI is above 100 µM in the assay with HOP-92 NSCLC; above 100 µM with SN12C renal; above 100 µM in the assay on IGROV1 ovarian; above 100 µM with HS 578T breast; 72.1 µM in the assay on SNB-75 CNS; above 100 µM with MCF7 breast. Further, the TGI in the assay with MALME-3M melanoma, in the assay with 786-0 renal, with OVCAR-8 ovarian, with UACC-257 melanoma, in the assay on MDA-MB-231 breast and in the assay with SNB-19 CNS was above 100 µM throughout. For the same compound, the TGI in the assay with OVCAR-5 ovarian was above 100 µM; in the assay with SK-MEL-28 melanoma it was above 100 µM; with HCT-15 colon, above 100 µM; in the assay with RXF 393 renal, 68.1 µM; with A549 NSCLC, above 100 µM; in the assay on SF-268 CNS it was above 100 µM. For the same compound, the TGI with COLO 205 colon is above 100 µM.
As to `CC(=O)N/N=C1/CC[C@@]2(C)C(=CC[C@H]3C4CCC(C(C)CCCC(C)C)[C@@]4(C)CCC32)C1(C)C` (some centres undefined), the TGI in the assay with HOP-92 NSCLC, with SN12C renal, in the assay on IGROV1 ovarian, with HS 578T breast, in the assay on SNB-75 CNS and in the assay with MCF7 breast was above 100 µM each time. For the same compound, the TGI in the assay on MALME-3M melanoma, in the assay with 786-0 renal, in the assay on OVCAR-8 ovarian, with UACC-257 melanoma, in the assay on SNB-19 CNS and with OVCAR-5 ovarian was above 100 µM in each case. For the same compound, the TGI with SK-MEL-28 melanoma, with HCT-15 colon, with A549 NSCLC, with SF-268 CNS and in the assay with COLO 205 colon was above 100 µM throughout.
Turning to `CC(C)(CC#N)c1cc(CC(C)(C)c2cc(CC(C)(C)c3cc(C(C)(C)C4(C)OCCO4)no3)no2)no1`, the TGI with SN12C renal is above 100 µM; in the assay with IGROV1 ovarian, above 100 µM; in the assay on HS 578T breast, 88.7 µM; in the assay with SNB-75 CNS, 43.5 µM; in the assay with MCF7 breast, above 100 µM; in the assay with MALME-3M melanoma, above 100 µM. The TGI with 786-0 renal is 43.1 µM; in the assay on OVCAR-8 ovarian it was above 100 µM; in the assay with UACC-257 melanoma, above 100 µM; in the assay with MDA-MB-231 breast it was 99.7 µM; with SNB-19 CNS, 77.7 µM; in the assay with A498 renal, above 100 µM. Also, the TGI was above 100 µM in the assay with OVCAR-5 ovarian; above 100 µM in the assay on SK-MEL-28 melanoma; above 100 µM in the assay on HCT-15 colon; 41.3 µM in the assay on RXF 393 renal; above 100 µM in the assay on A549 NSCLC; above 100 µM with SF-268 CNS. In the assay with COLO 205 colon, this compound came in with a TGI above 100 µM.
Consider `CCOC(=O)C1=COC(C)(c2ccccc2)CC1=O` (centres undefined), for which the TGI with SN12C renal, in the assay on HS 578T breast, in the assay on SNB-75 CNS, in the assay with MCF7 breast, in the assay with 786-0 renal and in the assay with OVCAR-8 ovarian was above 100 µM in each case. Moreover, the TGI in the assay with UACC-257 melanoma, with MDA-MB-231 breast, in the assay with SNB-19 CNS, in the assay with A498 renal, in the assay with OVCAR-5 ovarian and in the assay with SK-MEL-28 melanoma was above 100 µM throughout. Further, the TGI with HCT-15 colon, in the assay on RXF 393 renal, with A549 NSCLC, with SF-268 CNS and with COLO 205 colon was above 100 µM each time.
For `Cc1cc(=O)oc2c3c(ccc12)OC(c1ccc(Br)cc1)CC3=O` (centres undefined), the TGI in the assay on SN12C renal was above 100 µM; in the assay on IGROV1 ovarian, 32.5 µM; in the assay with HS 578T breast, 38.2 µM; with SNB-75 CNS it was 18.6 µM; with MCF7 breast it was 12.7 µM; in the assay on MALME-3M melanoma, 71.3 µM. The TGI in the assay on 786-0 renal was 25.5 µM; with OVCAR-8 ovarian it was 33.7 µM; in the assay on UACC-257 melanoma, 27.9 µM; in the assay with MDA-MB-231 breast, 37.8 µM; with SNB-19 CNS it was 20.5 µM; in the assay on OVCAR-5 ovarian it was 31.4 µM. For the same compound, the TGI in the assay on SK-MEL-28 melanoma was 21.3 µM; in the assay with HCT-15 colon, 34.2 µM; in the assay with A549 NSCLC, 34.8 µM; in the assay on SF-268 CNS, 32.1 µM; in the assay with COLO 205 colon it was 30.5 µM.
